Test results reported in the NIST ThermoML archive (doi:10.1016/j.jct.2018.10.030).
Numbers after ± are expanded uncertainties.

details: 298.15 K; 101.33 kPa; Liquid; Vibrating tube method

| Structure (SMILES) | mass density |
| --- | --- |
| CCCC(=O)O [butanoic acid] | 953.05 ± 0.21 kg/m3 |
| C[S+](C)[O-] [dimethyl sulfoxide] | 1095.34 ± 0.21 kg/m3 |
| CCCCCCC=O [heptanal] | 816.83 ± 3.2 kg/m3 |
| CCCCCC=O [hexanal] | 830.01 ± 1 kg/m3 |
| CCCCCC(=O)O [hexanoic acid] | 923.07 ± 0.21 kg/m3 |
| CCCCCCCC(=O)O [octanoic acid] | 906 ± 0.32 kg/m3 |
| CCCCC(=O)O [pentanoic acid] | 934.75 ± 0.21 kg/m3 |
| CC(C)O [propan-2-ol] | 780.69 ± 0.23 kg/m3 |
